Assay results taken from US8765791B2, “Method of treating cancer using a neuropeptide Y 5R (NP Y5R) antagonist” (University Health Network, priority 2008, dated 2014).

Columns and labels:
[1] = test system: Breast cancer cells, MDA MB 468; assay: breast cancer xenograft model (Example 11); format: in vivo, SCID mice; conditions: 30 mg/kg i.p. 3/week, approximately 4 weeks
Method: Breast cancer cells, MDA MB 468 (12 million), were injected subcutaneously (s.c.) on the neck of SCID mice (CB17, female, 4-6 weeks old) (Charles River, Wilmington, Mass.). The mice were divided into four groups, 5 mice for each group. The treatments were started when the tumor volume reached about 100 mm^3, day 22 after tumor implantation. […] The tumor sizes were monitored every 3 or 4 days. […] (FIG. 12)

[2] = test system: Hodgkin Lymphoma cells, HD-MYZ; assay: Hodgkin lymphoma xenograft model (Example 5); format: in vivo, NOD-SCID mice; conditions: 30 mg/kg ip 2/week, to day 36
Method: Hodgkin Lymphoma cells, HD-MYZ, (4 million) were injected subcutaneously on the left flank of 10-12 week old, female NOD-SCID mice (from The Jackson Lab, Cat#001303). […] The mice were sacrificed on day 36 when the experiment ended (FIG. 6).

[3] = test system: Ovarian cancer cells, Caov-3; assay: ovarian cancer xenograft model (Example 10); format: in vivo, CB17-SCID mice
Method: Ovarian cancer cells, Caov-3 (2 Million), were implanted in CB17-SCID mice. The mice were treated with MK0557 at 30 mg/kg or vehicle (15% of 0.5% of CMC (carboxymethylcellulose, low viscosity) and 85% of 0.2% Tween 80 in water) intraperitoneally daily for the first week followed by once every two days injections. Both the tumor growth and body weights were monitored for the duration of the experiment.

HUV-EC-C cells = assay: in vitro angiogenesis assay, tube formation; format: cell-based; conditions: HUV-EC-C on ECMatrix, after 5 hours
Method: HUV-EC-C cells were purchased from ATCC and routinely cultured in Ham's F12K medium supplemented with 10% FBS, 2 mM L-glutamine, 1.5 g/L sodium bicarbonate, 0.1 mg/ml heparin and 0.03 mg/ml endothelial cell growth supplement (ECGS).
An In Vitro Angiogenesis Assay kit from Chemicon (Cat#ECL625) was used for testing HUV-EC-C tube formation. Cells were incubated on ECMatrix coated 96-well plate at 8×10^3 cells per well in growth medium with or without NPY, its antagonist MK0557, or DMSO as a control. Inhibition of in vitro endothelial tubule formation by MK0557 was quantitated from photographs after 5 hours by counting the number of tubes in the well (FIG. 7).

human NPY2R = target: T1, human NPY2R (Homo sapiens, UniProt P49146); conditions: at a concentration of 10 μM; cited from earlier work
T1 sequence (P49146 1-381): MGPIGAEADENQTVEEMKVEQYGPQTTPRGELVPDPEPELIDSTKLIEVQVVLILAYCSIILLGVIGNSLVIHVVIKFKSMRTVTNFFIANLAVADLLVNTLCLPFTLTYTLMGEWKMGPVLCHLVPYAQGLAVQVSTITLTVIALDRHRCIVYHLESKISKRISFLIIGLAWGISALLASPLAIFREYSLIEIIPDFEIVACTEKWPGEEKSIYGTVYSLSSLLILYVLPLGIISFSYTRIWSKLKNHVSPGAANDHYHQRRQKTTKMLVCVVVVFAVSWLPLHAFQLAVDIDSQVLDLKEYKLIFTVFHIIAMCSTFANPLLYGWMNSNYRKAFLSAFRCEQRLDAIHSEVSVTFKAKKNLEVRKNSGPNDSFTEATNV

Lung cancer cells, H358 = assay: lung cancer xenograft model (Example 9); format: in vivo, CB17-SCID mice
Method: Lung cancer cells, H358, (1×10^6) were implanted in CB17-SCID mice. Ten days post-implantation, the mice were treated with MK0557 at 30 mg/kg or vehicle (15% of 0.5%) CMC (carboxymethylcelulose) (low viscosity) and 85% of 0.2% Tween80 in water) intraperitoneally daily for the first week followed by once every two days injections.

[4] = test system: Hodgkin Lymphoma cells, HD-MYZ; assay: Hodgkin's lymphoma xenograft model, MK-0557 and 200464 (Example 16); format: in vivo
Source text: Hodgkin lymphoma cells, HD-MYZ, were implanted in NOD-SCID mice, female, 4-6 weeks from Jackson's Laboratory (Maine). The treatments were started day 6 after tumor implantation. The mice were divided to six groups, 4-5 mice from each group. The treatment started with a tumor volume of about 70 mm3 after tumor implantation.

[5] = cited from earlier work
human NPY1R = target: T2, human NPY1R (Homo sapiens, UniProt P25929); conditions: at a concentration of 10 μM; cited from earlier work
T2 sequence (P25929 1-384): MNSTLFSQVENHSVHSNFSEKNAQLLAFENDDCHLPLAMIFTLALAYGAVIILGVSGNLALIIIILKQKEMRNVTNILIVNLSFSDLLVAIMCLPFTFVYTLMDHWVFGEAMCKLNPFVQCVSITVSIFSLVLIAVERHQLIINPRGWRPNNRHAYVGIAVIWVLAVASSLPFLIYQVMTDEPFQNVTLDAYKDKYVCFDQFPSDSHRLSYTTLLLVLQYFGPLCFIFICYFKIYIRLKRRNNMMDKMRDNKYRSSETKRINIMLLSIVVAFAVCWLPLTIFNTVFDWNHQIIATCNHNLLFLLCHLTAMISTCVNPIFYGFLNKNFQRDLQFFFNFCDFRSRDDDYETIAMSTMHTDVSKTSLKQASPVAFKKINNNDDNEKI

[6] = test system: Breast cancer cells, MDA MB 468; assay: breast cancer xenograft model, MK0557 and 5-FU (Example 15); format: in vivo, CB17-SCID; conditions: MK0557 alone, 30 mg/kg ip. 3/week
Method: Breast cancer cells, MDA MB 468, were injected into CB17-SCID. The treatments were started day 14 after tumor implantation. […] Tumor volume and tumor growth were monitored during the experiment.

human NPY4R = human NPY4R (Homo sapiens, UniProt P50391); conditions: at a concentration of 10 μM; cited from earlier work
[7] = 30 mg/kg intraperitoneally daily first week then once every two days
[8] = group 4: MK 0557 30 mg/kg i.p. 3 times for each week, versus vehicle

Chain of human NPY4R (P50391 whole entry): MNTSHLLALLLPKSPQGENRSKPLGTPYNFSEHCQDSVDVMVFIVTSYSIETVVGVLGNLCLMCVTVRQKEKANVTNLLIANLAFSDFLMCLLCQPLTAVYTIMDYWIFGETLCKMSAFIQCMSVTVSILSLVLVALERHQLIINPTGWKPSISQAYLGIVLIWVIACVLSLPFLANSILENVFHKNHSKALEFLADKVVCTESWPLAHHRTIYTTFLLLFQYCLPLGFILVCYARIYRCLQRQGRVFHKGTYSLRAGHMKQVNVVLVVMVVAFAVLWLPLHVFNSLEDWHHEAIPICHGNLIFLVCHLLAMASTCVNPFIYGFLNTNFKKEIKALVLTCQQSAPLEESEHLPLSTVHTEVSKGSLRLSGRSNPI

O=C1O[C@]2(CC[C@H](C(=O)Nc3ccn(-c4ccccc4F)n3)CC2)c2cnccc21 [MK-0557, trans-N-[1-(2-fluorophenyl)-3-pyrazolyl]-3-oxospiro[6 azaisobenzofuran-1(3H), 1′-cyclohexane]-4′carboxamide]
tumor growth [1]: inhibited tumor growth | tumor growth [2]: inhibition of tumor growth | change in body weight ([3]; 30 mg/kg intraperitoneally): not significantly affected | tumor growth [3, 7]: inhibited tumor growth | tube formation (HUV-EC-C cells): inhibits tube formation | binding to human NPY2R (human NPY2R): does not significantly bind | effect on mouse body weights (Lung cancer cells, H358; 30 mg/kg intraperitoneally): no obvious effect | tumor growth (Lung cancer cells, H358; [7]): Tumor growth was inhibited | tolerability of the doses by the mice ([4]; doses of Example 16, except group 6): well tolerated | Mean Tumor Volume ([4]; group 4: MK 0557 30 mg/kg i.p. 3 times for each week): 435.54+/−72.17 mm^3 | inhibition rate (tumor volume) [4, 8]: 70.94% | inhibition rate (tumor weight) [4, 8]: 67.30% | Mean Tumor Weight ([4]; group 4: MK 0557 30 gm/kg i.p. 3 times for each week): 0.3048 ± 0.0696 g | reduction in weight regain ([5]; following very-low-calorie-diet induced weight loss): did not result in a clinically meaningful reduction in weight regain | weight loss ([5]; overweight or obese adults, 1 mg/day, 5 mg/day or 25 mg/day): did not induce clinically meaningful weight loss | binding to human NPY1R (human NPY1R): does not significantly bind | Mean Tumor Volume [6]: 392.73±80.63 mm^3 | Mean Tumor Weight [6]: 0.1582 ± 0.0345 g | inhibition rate (tumor volume) ([6]; versus vehicle): 38.85% | inhibition rate (tumor weight) ([6]; versus vehicle): 38.59% | binding to human NPY4R (human NPY4R): does not significantly bind
